Measured values taken from patent US8008340B2, “3-arylthioindole-2-carboxamide derivatives and analogs thereof as inhibitors of casein kinase I” (Aventis Pharmaceuticals Inc., priority 2004, dated 2011).

Legend:
casein kinase 1ε = target: T1, casein kinase 1ε (Homo sapiens, UniProt P49674); assay: Casein Kinase Epsilon 33P-ATP Filter Plate Assay; format: biochemical; details: phosphorylation of casein, 33P-ATP with 10 μM cold ATP, 2 hours at room temperature; * denotes average of two or more determinations; read-out: CKIε Inhibition IC50
T1 construct: made in house
T1 sequence (P49674 whole entry): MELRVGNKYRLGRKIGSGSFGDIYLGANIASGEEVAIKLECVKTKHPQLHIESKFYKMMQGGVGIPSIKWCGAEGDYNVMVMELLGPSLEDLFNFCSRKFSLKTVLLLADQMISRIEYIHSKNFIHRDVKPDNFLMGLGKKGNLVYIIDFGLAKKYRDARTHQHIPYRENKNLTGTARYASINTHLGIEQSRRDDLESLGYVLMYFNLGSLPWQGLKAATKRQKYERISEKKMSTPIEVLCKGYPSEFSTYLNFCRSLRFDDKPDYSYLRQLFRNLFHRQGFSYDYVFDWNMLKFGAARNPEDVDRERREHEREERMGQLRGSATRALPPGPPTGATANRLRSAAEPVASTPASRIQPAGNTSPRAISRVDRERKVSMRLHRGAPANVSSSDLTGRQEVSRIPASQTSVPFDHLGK
Protocol: Casein Kinase Epsilon ^33P-ATP Filter Plate Assay for Screening CK1ε Inhibitors Purpose: This assay measures the effect of compounds to inhibit the phosphorylation of the substrate casein by the enzyme casein kinase 1ε using an in vitro ^33P-ATP filtration assay. Compounds are tested at five concentrations in duplicate in order to generate IC50 values or % inhibition at a 10 micromolar concentration that are summarized in Table 4.
Enzyme: • Casein Kinase 1ε final concentration 0.58 mg/ml obtained from fermentation and purification processes as are well known to one skilled in the art. The above are stored as 100 μL aliquots at minus 80° C.
Compounds: • Compounds for testing are supplied as frozen 10 mM compound stock dissolved in 100% DMSO. Assay Conditions:
Final total assay volume per well is equal to 50 μL made up as follows: • 5 μL of diluted compound stock (10, 1, 0.1, 0.01 or 0.001 μM), • 5 μL of dephosphorylated casein final concentration 0.2 μg/μL, • 20 μL of CK1ε final concentration 3 ng/μL, and • 20 μL of γ-^33P-ATP final concentration 0.02 μCi/μL mixed with cold ATP (10 μM final). Methodology: • 1. 500 mL of fresh assay buffer is made: 50 mM Tris pH 7.5, 10 mM MgCl2, 2 mM DTT and 1 mM EGTA • 2. Compounds to be evaluated are obtained as 10 μL of 10 mM stock dissolved in 100% DMSO. Using a Biomek 2000 liquid handling robot, serial dilutions are made to yield 10, 1, 0.1, 0.01 and 0.001 μM final compound dilutions added as 5 μL additions to Falcon U bottom plates. Typically 8 compounds are tested per 96 well plate with column 1 and 12 serving as control wells. A routine screening assay will consist of 32 compounds, which equals 4 assay plates. • 3. Assay plate maps are set up according to the following pattern CKlePlateMap.xls
• 4. Once 5 μL of compound has been added as indicated, 5 μL of dephosphorylated casein (dissolved in distilled H2O)(0.2 μg/μL) and 20 μL CK1ε (3 ng/μL) are added to the appropriate wells. • 5. Finally 20 μL γ-^33P-ATP (0.02 μCi/μL)/10 μM cold ATP are added (equals approximately 2×10^6 CPM per well). • 6. The Falcon U-Bottom assay plate containing the above 50 μL reaction volume is vortexed and then incubated at room temperature for 2 hours. • 7. At the end of 2 hours, the reaction is stopped by the addition of 65 μL of ice cold 2 mM cold ATP (made up in assay buffer) to the assay plates using a Beckman Multimek • 8. At the same time 25 μL 100% ice cold TCA made up in distilled H2O is added to a matching number of Millipore MAPH filter plates. • 9. Using a handheld 8-channel pipettor, 100 μL of the reaction mixture is transferred from the Falcon U-Bottom Plate to the Millipore MAPH filter plates presoaked with TCA. • 10. The Millipore MAPH filter plates are mixed gently and allowed to sit at room temperature for at least 30 minutes to precipitate the proteins. • 11. After 30 minutes the filter plates are placed on a Millipore vacuum manifold and filtered at no more than 8 mm Hg as the MAPH filters tend to “air lock” at higher vacuum settings. • 12. The filter plates are sequentially washed and filtered with 2×150 μL 20% TCA, 2×150 μL 10% TCA and 2×150 μL 5% TCA (total of 6 washes per plate/900 μL per well). • 13. Plates are allowed to dry overnight at room temperature. The next day 40 μL Packard Microscint-20 Scintillation Fluid is added per well using a Titertek Multidrop dispenser; the plates are sealed and counted for 2 minutes/well in a Packard Topcount NXT Scintillation Counter (CPM values/well are captured).
Calculation: • 1. Counts Per Minute (CPM) data is captured and imported into a proprietary data calculation and archiving database (Activity Base by IDBS version 5.0). • 2. Column 1 for each plate reflects total phosphorylation activity of the enzyme in the absence of any inhibiting compound and thus represents 100%. Column 12 reflects any nonspecific phosphorylation/retained radioactivity activity in the absence of inhibiting compound and enzyme. […]

[1] = system: Mper1-luc Rat-1 fibroblasts (P2C4); assay: Cellular Circadian Assay (Mper1-luc reporter, period lengthening); format: cell-based; details: effective micromolar concentration that induced a 1 hour lengthening of period
Excerpt: U.S. Pat. No. 6,555,328 B1 discloses screening methods in cells to identify compounds that alter circadian rhythms based on a test compound altering the ability of human casein kinase 1ε and/or human casein kinase 1δ to phosphorylate the human clock proteins hPER1, hPER2 and hPER3. For example, HEK293T cells are co-transfected with hCKIε and Per1 or Per2. For the purpose of evaluating the relevancy of CKIε inhibition and CKIε inhibitors to circadian biology, a high-throughput cellular assay (33rd Annual Meeting, Soc. for Neurosci., Nov. 8-12, 2003, Abstract numbers 284.1, 284.2, and 284.3) was developed in which circadian rhythm could be monitored in a routine manner. The assay consists of Rat-1 fibroblasts stably expressing an Mper1-luc construct, thus enabling the determination of the rhythmic activation of the Mper1 promoter in living cells by repeatedly estimating luciferase activity by monitoring light-output over several days. The repeated measure format of the assay permits accurate and reproducible assessment of the concentration-dependent effects of CKIε inhibitors on circadian rhythm and provides the nexus for relating CKIε inhibition to circadian period alteration.
Cell culture: Mper1-luc Rat-1 fibroblasts (P2C4) cultures were split every 3-4 days (˜10-20% confluence) onto 150 cm^2 vented polystyrene tissue culture flasks (Falcon #35-5001) and maintained in growth media [EMEM (Cellgro #10-010-CV); 10% fetal bovine serum (FBS; Gibco #16000-044); and 50 I.U./mL penicillin-streptomycin (Cellgro #30-001-C1)] at 37° C. and 5% CO2. […] Zeocin-resistant stable transfectants were assessed for reporter expression by supplementing growth media with 100 μM luciferin (Promega #E1603) and assaying luciferase activity on a TopCount scintillation counter (Packard Model #C384V00). Rat-1 clones expressing both Zeocin-resistance and mPer1-driven luciferase activity were synchronized by 50% horse serum [HS (Gibco #16050-122)] serum shock and assessed for circadian reporter activity. […]

IC50 (casein kinase 1ε) [µM]	melting point [°C]	Structure (SMILES)	Cell Assay ECΔτ+1h [1] [µM]
> 10	–	NC(=O)c1[nH]c2ccc(Cl)cc2c1S(=O)(=O)c1ccccc1 [Ia, 3-Benzensulfonyl-5-chloro-1H-indole-2-carboxylic acid amide]	–
–	254 to 255	O=C(c1[nH]c2ccc(F)cc2c1Sc1ccccn1)N1CCCC1 [Iaf, [5-Fluoro-3-(pyridin-2-ylsulfanyl)-1H-indol-2-yl]-pyrrolidin-1-yl-methanone]	–
–	213 to 214	O=C(c1[nH]c2ccccc2c1Sc1ccccn1)N1CCCC1 [Iag, [3-(Pyridin-2-ylsulfanyl)-1H-indol-2-yl]-pyrrolidin-1-yl-methanone]	–
2.7	–	NC(=O)c1[nH]c2ccccc2c1S(=O)(=O)c1ccccc1 [Ib, 3-Benzensulfonyl-1H-indole-2-carboxylic acid amide]	–
3.1	197 to 197.5	NC(=O)c1[nH]c2ccccc2c1Sc1ccccc1 [Ic, 3-Phenylsulfanyl-1H-indole-2-carboxylic acid amide]	–
0.42	–	NC(=O)c1[nH]c2ccc(Br)cc2c1Sc1ccccc1 [Id, 5-Bromo-3-phenylsulfanyl-1H-indole-2-carboxylic acid amide]	–
0.18	–	COc1ccc2[nH]c(C(N)=O)c(Sc3ccccc3N)c2c1 [Ie, 3-(2-Amino-phenylsulfanyl)-5-methoxy-1H-indole-2-carboxylic acid amide]	>10
0.43	–	NC(=O)c1[nH]c2ccccc2c1Sc1cccc(F)c1 [If, 3-(3-Fluoro-phenylsulfanyl)-1H-indole-2-carboxylic acid amide]	1.6
0.12	–	NC(=O)c1[nH]c2ccc(Br)cc2c1Sc1ccccc1N [Ig, 3-(2-Amino-phenylsulfanyl)-5-bromo-1H-indole-2-carboxylic acid amide]	1.6
0.08	–	NC(=O)c1[nH]c2ccccc2c1Sc1ccccc1N [Ih, 3-(2-Amino-phenylsulfanyl)-1H-indole-2-carboxylic acid amide]	–
187	–	NC(=O)c1[nH]c2ccccc2c1Sc1ccccn1 [Ii, 3-(Pyridin-2-ylsulfanyl)-1H-indole-2-carboxylic acid amide]	–
> 10	–	CNC(=O)c1[nH]c2ccccc2c1Sc1ccccc1 [Ij, 3-Phenylsulfanyl-1H-indole-2-carboxylic Acid Methylamide]	–
> 10	–	CNC(=O)c1[nH]c2ccccc2c1Sc1ccccn1 [Ik, 3-(Pyridin-2-ylsulfanyl)-1H-indole-2-carboxylic acid methylamide]	–
> 10	–	NC(=O)c1[nH]c2ccccc2c1Oc1ccccc1 [Il, 3-Phenoxy-1H-indole-2-carboxylic acid amide]	–
5.8	–	COc1ccc(Oc2c(C(N)=O)[nH]c3ccccc23)cc1 [Im]	–
0.89	–	NC(=O)c1[nH]c2ccccc2c1Oc1ccc(F)cc1 [In]	–
2.4	–	NC(=O)c1[nH]c2ccccc2c1Oc1ccccc1F [Io]	–
2.8	–	NC(=O)c1[nH]c2ccccc2c1Oc1ccc(Cl)cc1 [Ip]	–
13.5	–	COc1c(C(N)=O)[nH]c2ccccc12 [Iq, 3-Methoxy-1H-indole-2-carboxylic acid amide]	–
8.7	–	CCOc1c(C(N)=O)[nH]c2ccccc12 [Ir, 3-Ethoxy-1H-indole-2-carboxylic acid amide]	–
8.9	–	CC(C)Oc1c(C(N)=O)[nH]c2ccccc12 [Is, 3-Isopropoxy-1H-indole-2-carboxylic acid amide]	–
9.9	–	NC(=O)c1[nH]c2ccccc2c1OCc1ccccc1 [Iu, 3-Benzyloxy-1H-indole-2-carboxylic acid amide]	–
–	254 to 255	Cc1ccc(Sc2c(C(=O)N3CCCC3)[nH]c3ccc(F)cc23)cc1 [Iw, (5-Fluoro-3-p-tolylsulfanyl-1H-indol-2-yl)-pyrrolidin-1-yl-methanone]	–
–	161 to 162	O=C(c1[nH]c2ccccc2c1Sc1ccccc1)N1CCCCC1 [Ix, (3-Phenylsulfanyl-1H-indol-2yl)-piperidin-1-yl-methanone]	–
–	254 to 255	O=C(c1[nH]c2ccc(F)cc2c1Sc1ccccc1)N1CCCC1 [Iy, (5-Fluoro-3-phenylsulfanyl-1H-indol-2-yl)-pyrrolidin-1-yl-methanone]	–

Structure (SMILES)	IC50 (casein kinase 1ε) [µM]	melting point [°C]	Cell Assay ECΔτ+1h [1] [µM]
CC(C)(C)Oc1c(C(N)=O)[nH]c2ccccc12 [It, 3-tert-Butoxy-1H-indole-2-carboxylic acid amide]	11.7	–	–
